Measured values as given in US20200046835A1, “Systems, Methods, and Compositions For Cross-Linking Treatments of an Eye” (Avedro, Inc., priority 2014, published 2020).
One block for each molecule: values may come before it.

How the values were obtained:
[1] = test system: corneal collagen; test: Papain digest fluorescence of pig corneal flaps (collagen cross-linking); details: for fluorescence (relative to untreated controls) recorded at 450 nm: FeSO4 0.5 mM added to 0.1% riboflavin; for fluorescence of the corneal samples after digestion with papain (excitation 360 nm), compared to controls not exposed to UV: phosphate buffer, UV 365 nm, 30 mW/cm^2, pulsed 1 s on:1 s off, 8 min, oxygen
Description: Corneal flaps were soaked in either distilled water or diluted H2O2 (1%) for 20 minutes. Flaps soaked in H2O2 were either rinsed twice with distilled water or removed from H2O2 and placed in 0.1% FeSO4 solution in distilled water for an additional 20 minute soak followed by a 2× rinse with distilled water. Flaps were dried in a vacuum until the weight change became less than 10% (Rotary vane vacuum pump RV3 A652-01-903, BOC Edwards, West Sussex, UK). Each flap was digested for 2.5 hours at 65° C. with 2.5 units/ml of papain (from Papaya latex, Sigma) in 1 ml of papain buffer [EBBS (pH 7.0-7.2), 2 mM L-cysteine and 2 mM EDTA]. Papain digests were centrifuged for 5 seconds at 2200×G (Mini centrifuge 05-090-100, Fisher Scientific), diluted 0.5 times with BBBS and fluorescence of the solutions was measured with excitation of λex=360 nm in a QM-40 Spectrofluorometer (Photon Technology Int., London, Ontario, Canada). The fluorescence of the papain buffer was taken into account by measuring fluorescence in the absence of tissue and subtracting this value from the fluorescence of the samples. […]
(§1) Pig eyes were shipped overnight on ice from an abattoir (SiouxPreme, Sioux City, Iowa), rinsed in saline. Eyes were cleaned and epithelium was removed. […] If specified, eyes were placed in a beaker with a light oxygen stream for 2 minutes in the incubation chamber prior to irradiation. Corneas were pan-corneally irradiated with a top hat beam (3% root mean square) for the chosen time (4 or 8 minutes) with 365-nm light source (UV LED NCSU033B[T]; Nichia Co., Tokushima, Japan) at the chosen irradiance (30 mW/cm^2, pulsed or non-pulsed) which was measured with a power sensor (model PD-300-UV; Ophir, Inc., Jerusalem, Israel) at the corneal surface. Corneal flaps (approximately 200 μm thick) were excised from the eyes with aid of Intralase femtosecond laser (Abbot Medical Optics, Santa Ana, Calif.). The average thickness of the corneal flaps was calculated as a difference between the measurements before and after the excision from the eyes with an ultrasonic Pachymeter (DGH Technology, Exton, Pa.). The flaps were placed into a biaxial extensometer (CellScale Biotester 5000, Waterloo, ON), using biorake attachments with 5 tines spanning a width of 3 mm. Each sample was stretched at a constant rate of 4 μm/s in saline at 37° C. until sample failure. The flaps were washed with distilled water 2 times, dried with filter paper, washed with dH2O two times, and then dried in a vacuum until the weight change became less than 10% (Rotary vane vacuum pump RV3 A652-01-903, BOC Edwards, West Sussex, UK). Each flap was digested for 2.5 hours at 65° C. with 2.5 units/ml of papain (from Papaya latex, Sigma) in 1 ml of papain buffer [BBBS (pH 7.0-7.2), 2 mM L-cysteine and 2 mM EDTA]. Papain digests were centrifuged for 5 seconds at 2200×G (Mini centrifuge 05-090-100, Fisher Scientific), diluted 0.5 times with 1× BBBS and fluorescence of the solutions was measured with excitation of λex=360 nm in a QM-40 Spectrofluorometer (Photon Technology Int., London, Ontario, Canada). The fluorescence of the papain buffer was taken into account by measuring fluorescence in the absence of tissue and subtracting this value from the fluorescence of the samples.
(§2) Oxygen was supplied continuously to the beaker during the time of exposure.
as §2

[2] = test system: corneal collagen; test: Biaxial extensometry (tensiometry) of pig corneal flaps; details: for corneal stiffness (displacement-force diagrams): 1% solution in dH2O; for stiffening of corneal sample (displacement vs. force curves), compared to the unexposed controls: phosphate buffer, UV 365 nm, 30 mW/cm^2, pulsed 1 s on:1 s off, 8 min, oxygen
Description: as §1, §2
Oxygen was supplied continuously to the beaker during the time of exposure. Corneal flaps were cut at approximately 200 μm.
Pig eyes were shipped overnight on ice from an abattoir (SiouxPreme, Sioux City, Iowa), rinsed in saline. Eyes were cleaned and epithelium was removed. […] Corneas were pan-corneally irradiated with a top hat beam (3% root mean square) for 4 minutes with 365-nm light source (UV LED NCSU033B[T]; Nichia Co., Tokushima, Japan) at irradiance 30 mW/cm^2, which was measured with a power sensor (model PD-300-UV; Ophir, Inc., Jerusalem, Israel) at the corneal surface. Corneal flaps (approximately 200 μm thick) were excised from the eyes with aid of Intralase femtosecond laser (Abbott Medical Optics, Santa Ana, Calif.). The average thickness of the corneal flaps was calculated as a difference between the measurements before and after the excision from the eyes with an ultrasonic Pachymeter (DGH Technology, Exton, Pa.). The flaps were then placed into a biaxial extensometer (CellScale Biotester 5000, Waterloo, ON), using biorake attachments with 5 tines spanning a width of 3 mm. Each sample was stretched at a constant rate of 4 μm/s in saline at 37° C. until sample failure. The flaps were washed with distilled water, dried in a vacuum until the weight change became less than 10% (Rotary vane vacuum pump RV3 A652-01-903, BOC Edwards, West Sussex, UK). Each flap was digested for 2.5 h at 65° C. with 2.5 units/ml of papain (from Papaya latex, Sigma) in 1 ml of papain buffer [EBBS (pH 7.0-7.2), 2 mM L-cysteine and 2 mM EDTA].

[3] = biological target: human serum albumin (Homo sapiens, UniProt P02768); details: irradiated in the presence of human serum albumin; cited from earlier work
[4] = test system: corneal collagen; test: Papain digest fluorescence of pig corneal flaps (collagen cross-linking); details: 0.1% in BBBS, de-oxygenated with argon, irradiated 4 min at 30 mW/cm^2 in CO2 atmosphere
[5] = 0.4% in PBS, UVA 30 mW/cm2, 4 min CW or 8 min pulsed with O2

Sequence of human serum albumin (P02768 25-609): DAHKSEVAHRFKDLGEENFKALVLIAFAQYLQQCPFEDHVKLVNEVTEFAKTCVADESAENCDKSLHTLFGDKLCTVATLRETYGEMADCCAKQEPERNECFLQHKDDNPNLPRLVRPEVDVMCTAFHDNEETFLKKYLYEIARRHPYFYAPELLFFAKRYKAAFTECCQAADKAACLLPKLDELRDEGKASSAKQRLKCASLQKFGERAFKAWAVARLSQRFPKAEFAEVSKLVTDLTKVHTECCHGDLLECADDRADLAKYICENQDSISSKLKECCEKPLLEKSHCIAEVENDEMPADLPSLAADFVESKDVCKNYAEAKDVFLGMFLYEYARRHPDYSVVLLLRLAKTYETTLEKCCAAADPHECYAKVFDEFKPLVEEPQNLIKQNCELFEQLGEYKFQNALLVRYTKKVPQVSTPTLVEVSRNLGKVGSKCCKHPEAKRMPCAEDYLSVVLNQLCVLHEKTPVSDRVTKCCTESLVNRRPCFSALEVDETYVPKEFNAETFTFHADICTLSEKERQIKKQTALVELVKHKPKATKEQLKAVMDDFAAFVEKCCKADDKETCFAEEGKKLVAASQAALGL

SMILES: OO [H2O2, hydrogen peroxide]
- fluorescence counts of papain digested corneal flaps (cross-linking) ([1]; 1% H2O2 soak 20 min, with or without following 0.1% Iron(II) soak 20 min, no UV): not

- corneal stiffness (displacement-force diagrams) ([2]; with UV light 365 nm, 30 mW for 4 min): increase
- corneal stiffness (displacement-force diagrams) ([2]; without UV light): does not cross-link corneal flaps
SMILES: CC(=O)C(C)=O [2,3-butanedione]
- fluorescence output (relative to the untreated controls, Fo) recorded at 450 nm ([1]; 1% solution in dH2O, with UV light 365 nm, 30 mW for 4 min): increase
- fluorescence (relative to the untreated controls, Fo) recorded at 450 nm ([1]; 1% solution in dH2O, without UV light): does not cross-link corneal flaps

SMILES: O=S(=O)([O-])[O-].[Fe+2] [FeSO4, Iron(II) Sulfate]
- average force vs. displacement measured by tensiometry (biaxial tension) ([2]; PW+O2, UVA 30 mW/cm^2, 8 min (1 s on:1 s off), versus 0.1% riboflavin): increase in biaxial tension
- fluorescence (relative to untreated controls) recorded at 450 nm ([1]; CW UVA 30 mW/cm^2, 4 min): increase in fluorescence
- fluorescence (relative to untreated controls) recorded at 450 nm ([1]; PW+O2, UVA 30 mW/cm^2, 8 min (1 s on:1 s off)): increase in fluorescence

SMILES: Cc1c(C(=O)NCCO)[n+]([O-])c2ccccc2[n+]1[O-] [Olaquindox, N-(2-hydroxyethyl)-3-methyl-2-quinoxalinecarboxamide 1,4-dioxide]
- stiffness by biaxial extensiometry of 200 μm thick corneal flaps [2, 5]: became stiffer
- relative fluorescence recorded at 450 nm of the cross-linked flaps [1, 5]: acquired fluorescence at 450 nm
- time to complete disappearance on irradiation [3]: ≤ 20 s

SMILES: Cc1cc2nc(C(=O)[O-])c(=O)n(C[C@H](O)[C@H](O)[C@H](O)CO)c2cc1C.O.[Na+] [sodium salt of 1,2-Dihydro-6,7-dimethyl-2-keto-1-D-ribityl-3-quinoxalinecarboxylic acid monohydrate]
- fluorescence of the digested corneal flaps (excitation 360 nm), compared with riboflavin [4]: higher than the fluorescence of the corneal flaps cross-linked with riboflavin
- fluorescence of the digested corneas in the area 450 nm ([1]; 0.1% in BBBS, no epithelium, 20 min soak, 30 mW/cm^2 for 4 min continuous UVA): elevated fluorescence

- stiffening of corneal sample (displacement vs. force curves), compared to the unexposed controls [2]: significant stiffening
SMILES: Nc1nc2ncc(CNc3ccc(C(=O)N[C@@H](CCC(=O)O)C(=O)O)cc3)nc2c(=O)[nH]1 [FA, Folic acid]
- fluorescence of the corneal samples after digestion with papain (excitation 360 nm), compared to controls not exposed to UV [1]: increases

- average force vs. displacement measured by tensiometry ([2]; CW UVA 30 mW/cm^2, 4 min, relative to controls): higher than the control group
- stiffening of corneal sample (displacement vs. force curves), compared to the unexposed controls [2]: significant stiffening
SMILES: Cc1cc2nc3c(=O)[nH]c(=O)nc-3n(C[C@H](O)[C@H](O)[C@H](O)CO)c2cc1C [0.1% riboflavin, riboflavin]
- fluorescence of the corneal samples after digestion with papain (excitation 360 nm), compared to controls not exposed to UV [1]: increases
